This passage reports IC50 results from US12172989B2, “Histone acetyltransferase (HAT) inhibitor and use thereof” (SHANGHAI INSTITUTE OF MATERIA MEDICA, CHINESE ACADEMY OF …, priority 2018, dated 2024).

Experiment [1] has as its target T1, histone acetyltransferase p300 (Homo sapiens, UniProt Q09472).
T1 construct: purchased BPS Corporation 50071
T1 sequence (Q09472 1284-1673 limits assumed): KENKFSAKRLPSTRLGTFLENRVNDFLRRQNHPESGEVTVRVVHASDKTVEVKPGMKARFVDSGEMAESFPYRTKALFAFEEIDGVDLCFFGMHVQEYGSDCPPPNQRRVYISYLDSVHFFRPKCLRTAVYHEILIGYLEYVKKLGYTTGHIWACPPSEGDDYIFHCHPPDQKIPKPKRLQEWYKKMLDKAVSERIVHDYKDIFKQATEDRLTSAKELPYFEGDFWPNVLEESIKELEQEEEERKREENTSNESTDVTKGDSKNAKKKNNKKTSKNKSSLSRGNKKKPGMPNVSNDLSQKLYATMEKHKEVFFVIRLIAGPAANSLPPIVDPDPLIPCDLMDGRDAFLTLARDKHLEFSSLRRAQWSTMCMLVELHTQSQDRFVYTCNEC
The experiment is described as follows: Histone acetyltransferase (p300) activity assay (radioisotope, [3H]-Ac-CoA). The class given is biochemical. Conditions: p300 0.05 nM; histone peptide 600 nM, [3H]-Ac-CoA 250 nM; 60 min at room temperature; read-out: Inhibition rate IC50. On the procedure: The reaction was finally terminated with Ac-CoA (Sigma, Cat. No. A2056) without isotope labeling. If the activity of the acetyltransferase p300 was inhibited, the isotope signal cannot be detected on the substrate polypeptide. Therefore, the inhibitory activity of the compound against the acetyltransferase p300 was evaluated.
In the enzyme reaction system, 200 nL of a diluted compound (100% DMSO) was first transferred to a test plate using Echo, where the final concentration of the compound in the enzyme reaction system ranges from 0.25 to 5000 nM. Then 10 μL/well of p300 protein (final concentration of 0.05 nM) was transferred therein, and incubated with the compound for 15 min at room temperature. Then 10 μL/well of a substrate mixture (final concentrations of histone peptide and [^3H]—Ac-CoA were 600 nM and 250 nM, respectively) was added to start the enzyme-catalyzed reaction, and incubated at room temperature for 60 min. Then 10 µL/well of a 250 μM cold Ac-CoA solution was added to stop the reaction. Finally 25 μL/well of the reaction solution was transferred to a 384-well Flashplate (Perkin Elmer, Cat. No. SMP410A001PK), and incubated at room temperature for 1 h. The resultant was washed with double distilled water+0.1% Tween-20 three times. The signal value was read by using Microbeta. The data was analyzed by using GraphPad Prism 5.0 software to obtain IC50.

Experiment [2] relates to Human castration resistant prostate cancer cell line LNCaP clone FGC. The experiment is described as follows: Cell growth inhibition experiment (CellTiter-Glo), LNCaP clone FGC. The class given is cell-based. Conditions: Homo sapiens, 120 h, LNCaP clone FGC cells treated with the compound for 5 days. As for the experimental part:
(§1) Human castration resistant prostate cancer cell line 22Rv1 and LNCaP clone FGC (22Rv1 cell line was from ATCC, CRL-2505, LNCaP clone FGC cell line was purchased from Cell Bank of the Chinese Academy of Sciences) were cultured with RPMI 1640 medium (Gibco, available from Life Technologies Corporation, 22400-089) containing 10% fetal bovine serum (Gibco, available from Life Technologies, 10099-141) and 1% antibiotics (penicillin and streptomycin, available from Life Technologies Corporation, 10378016) in a CO2 cell incubator (37° C., 5% CO2). In the cell growth inhibition experiment, 22Rv1 and LNCaP clone FGC cells in exponential growth phase were seeded on a 96-well plate (purchased from Corning Company, 3599) with a volume of 150 μL/well and a cell density of 1,500 cells/well. After seeded, the plate was placed in a CO2 incubator to incubate overnight to allow the cells to adhere. On the next day, 50 μL of a compound at different concentrations diluted in 3-fold gradient or DMSO were added in a 96-well plate containing the cells. The final concentration of the compound ranges from 0.3 to 10000 nM, and the final concentration of DMSO is 0.05% as control group. The cells were treated by the compound for 5 days. Cell viability was measured using CellTiter-Glo reagent (purchased from Promega, G7572): the cell treated with the compound for 5 days was added with CellTiter-Glo reagent at 40 μL/well, incubated at room temperature for 10 min, transferred to a white 96-well plate (OptiPlate-96, purchased from PerkinElmer, 605299) by 70 μL. Subsequently, the luminescence signal was detected using a multifunctional microplate reader EnVision (purchased from PerkinElmer) at a wavelength of 400-700 nm. The data was analyzed by using GraphPad Prism 5.0 software to obtain IC50.
(In general: In ATP-based viability assays light output follows the ATP content of the culture.)

In experiment [3] the test system is Human castration resistant prostate cancer cell line 22Rv1. The experiment is described as follows: Cell growth inhibition experiment (CellTiter-Glo), 22Rv1. Type of experiment: cell-based. Conditions: Homo sapiens, 120 h, 22Rv1 cells treated with the compound for 5 days. As for the experimental part: as §1
The test system of experiment [4] is human mantle cell lymphoma (MCL) cell line MAVER-1. The experiment is described as follows: Cell growth inhibition experiment (CellTiter-Glo), MAVER-1. Type of experiment: cell-based. Conditions: Homo sapiens, Maver1, 120 h, MAVER-1 cells treated with the compound for 5 days. On the procedure: The human mantle cell lymphoma (MCL) cell line MAVER-1 (from ATCC, CRL-3008) was cultured with RPMI 1640 medium (Gibco, available from Life Technologies Corporation, 22400-089) containing […] (Gibco, available from Life Technologies, 10099-141) and 1% antibiotics (penicillin and streptomycin, available from Life Technologies Corporation, 10378016) in a CO2 cell incubator (37° C., 5% CO2). In the cell growth inhibition experiment, MAVER-1 cells in exponential growth phase were seeded on a 96-well plate (purchased from Corning Company, 3599) in a volume of 100 μL/well and a cell density of 1*10E5 cells/well. After seeded, the plate was placed in a CO2 incubator to culture for 1 h. 100 μL of a compound at different concentrations diluted in 3-fold gradient or DMSO were added in a 96-well plate containing the cells. The final concentration of the compound ranges from 0.3 to 10000 nM, and the final concentration of DMSO is 0.05% as control group. The cells were treated with the compound for 5 days. Cell viability was measured using CellTiter-Glo reagent (purchased from Promega, G7572): the cells treated with the compound for 5 days was added with CellTiter-Glo reagent at 20 μL/well, incubated at room temperature for 10 min, transferred to a white 96-well plate (OptiPlate-96, purchased from PerkinElmer, 605299) by 80 μL. Subsequently, the luminescence signal was detected by using a multifunctional microplate reader EnVision (purchased from PerkinElmer) at a wavelength of 400-700 nm. The data was analyzed by using GraphPad Prism 5.0 software to obtain IC50.

Molecules are shown by their SMILES.

In general, IC50 refers to the concentration at which inhibition is half-maximal. On to `CNC(=O)Nc1ccc2c(c1)CC[C@@]21OC(=O)N(CC(=O)N2Cc3ccccc3OC[C@H]2C)C1=O` [SYY-B014-2], for which the half-maximal inhibitory concentration (IC50) in experiment [1] stood at 0.012 µM; in experiment [2] it was 0.078 µM. As for `NC1(C(=O)Nc2ccc3c(c2)CC[C@]32OC(=O)N(CC(=O)N3Cc4ccc(F)cc4CC[C@H]3C3CC3)C2=O)CC1` [SYY-B035-1], the figures for the IC50 in experiment [1] and in experiment [3] were below 0.005 µM and below 0.3 µM, respectively. On to `NC1(C(=O)Nc2ccc3c(c2)CC[C@@]32OC(=O)N(CC(=O)N3Cc4ccc(F)cc4CC[C@H]3C3CC3)C2=O)CC1` [SYY-B035-2], for which the IC50 in experiment [1] was below 0.005 µM; in experiment [3] it was below 0.3 µM. In the same order, the values of `Cn1cc(-c2ccc3c(c2)CCC32NC(=O)N(CC(=O)N3Cc4ccc(F)cc4CC[C@H]3C3CC3)C2=O)cn1` (stereo partly drawn) [SYY-B043] are below 0.005 µM and below 0.05 µM. As to `CNC(=O)Cn1cc(-c2ccc3c(c2)CCC32NC(=O)N(CC(=O)N3Cc4ccc(F)cc4CC[C@H]3C3CC3)C2=O)cn1` (stereo partly drawn) [SYY-B045], the IC50 in experiment [1] is below 0.005 µM; in experiment [3] it was below 0.1 µM.

`CNC(=O)Nc1ccc2c(c1)CC[C@@]21OC(=O)N(CC(=O)N2Cc3cc(F)ccc3OC[C@H]2C(F)(F)F)C1=O` [SYY-B057-2]: the IC50 worked out at 0.0024 µM in experiment [1], 0.0105 µM in experiment [3] and 0.065 µM in experiment [4].

Consider `CNC(=O)Nc1ccc2c(c1)OCCC21NC(=O)N(CC(=O)N2Cc3ccc(F)cc3CC[C@H]2C2CC2)C1=O` (stereo partly drawn) [SYY-B074], for which the IC50 is below 0.01 µM in experiment [1] and below 0.02 µM in experiment [4].

On to `CNC(=O)Nc1ccc2c(c1)OCCC21OC(=O)N(CC(=O)N2Cc3ccc(F)cc3CC[C@H]2C2CC2)C1=O` (stereo partly drawn) [SYY-B077], for which the figures for the IC50 in experiment [1], in experiment [3] and in experiment [4] were below 0.005 µM, below 0.02 µM and below 0.02 µM, respectively. Regarding `CNC(=O)Nc1ccc2c(c1)CCC21NC(=O)N(CC(=O)N2Cc3cc(F)ccc3OC[C@H]2C(F)(F)F)C1=O` (stereo partly drawn) [SYY-B083], the IC50 in experiment [1] is below 0.02 µM; in experiment [3], below 0.1 µM; in experiment [4] it was below 0.05 µM. In the same order, the values of `Cn1cc(-c2ccc3c(c2)CCC32OC(=O)N(CC(=O)N3Cc4cc(F)ccc4OC[C@H]3C(F)(F)F)C2=O)cn1` (stereo partly drawn) [SYY-B084] are below 0.02 µM, below 0.1 µM and below 0.02 µM. In the same order, the values of `Cn1cc(-c2ccc3c(c2)CCC32NC(=O)N(CC(=O)N3Cc4cc(F)ccc4OC[C@H]3C(F)(F)F)C2=O)cn1` (stereo partly drawn) [SYY-B085] are below 0.02 µM, below 0.05 µM and below 0.01 µM. In the same order, the values of `CNC(=O)Nc1ccc2c(c1)CCCC21OC(=O)N(CC(=O)N2Cc3cc(F)ccc3OC[C@H]2C2CC2)C1=O` (stereo partly drawn) [SYY-B086] are below 0.01 µM, below 0.02 µM and at most 0.02 µM. For `CNC(=O)Nc1ccc2c(c1)CCCC21NC(=O)N(CC(=O)N2Cc3cc(F)ccc3OC[C@H]2C2CC2)C1=O` (stereo partly drawn) [SYY-B092], the IC50 in experiment [1] and in experiment [4] was below 0.02 µM each time. For the compound `Cn1cc(-c2ccc3c(c2)CCCC32NC(=O)N(CC(=O)N3Cc4cc(F)ccc4OC[C@H]3C3CC3)C2=O)cn1` (stereo partly drawn) [SYY-B093], the IC50 in experiment [1], in experiment [3] and in experiment [4] was below 0.02 µM throughout. Turning to `CNC(=O)Nc1ccc2c(c1)OCCC21NC(=O)N(CC(=O)N2Cc3cc(F)ccc3OC[C@H]2C2CC2)C1=O` (stereo partly drawn) [SYY-B099], the IC50 in experiment [1] is below 0.02 µM; in experiment [3], 0.121 µM. As to `CNC(=O)Nc1ccc2c(c1)CC[C@@]21OC(=O)N(CC(=O)N2Cc3cnccc3CC[C@H]2C2CC2)C1=O` [SYY-B136-2], the IC50 in experiment [1] was below 0.01 µM. The same measure, in the same setting: as for `CNC(=O)Nc1ccc2c(c1)CC[C@@]21OC(=O)N(CC(=O)N2Cc3sccc3OC[C@H]2C(F)(F)F)C1=O` [SYY-B140-2], the figure is 0.007 µM.

For the compound `CNC(=O)Nc1ccc2c(c1)CCC21NC(=O)N(CC(=O)N2Cc3sccc3OC[C@H]2C(F)(F)F)C1=O` (stereo partly drawn) [SYY-B142], the IC50 in experiment [1] is below 0.05 µM. Consider `Cn1cc(-c2ccc3c(c2)CCC32OC(=O)N(CC(=O)N3Cc4sccc4OC[C@H]3C(F)(F)F)C2=O)cn1` (stereo partly drawn) [SYY-B144], for which the concentration for half-maximal inhibition (IC50) in experiment [1] is below 0.05 µM. For `CNC(=O)Nc1ccc2c(c1)OCC21NC(=O)N(CC(=O)N2Cc3cc(F)ccc3OC[C@H]2C2CC2)C1=O` (stereo partly drawn) [SYY-B156], in experiment [1], the IC50 was below 0.03 µM.

Regarding `Cn1cc(-c2cc3c(cn2)C2(CC3)NC(=O)N(CC(=O)N3Cc4cc(F)ccc4OC[C@H]3C(F)(F)F)C2=O)cn1` (stereo partly drawn) [SYY-B161], the IC50 in experiment [1] is below 0.1 µM. The same measure, in the same setting: as for `Cn1cc(-c2cnc3c(c2)CCC32NC(=O)N(CC(=O)N3Cc4cc(F)ccc4OC[C@H]3C(F)(F)F)C2=O)cn1` (stereo partly drawn) [SYY-B163], the figure is below 0.02 µM; as for `Cn1cc(-c2ccc3c(n2)CCC32NC(=O)N(CC(=O)N3Cc4cc(F)ccc4OC[C@H]3C(F)(F)F)C2=O)cn1` (stereo partly drawn) [SYY-B165], below 0.02 µM. On the same count and under the same terms, as for `Cn1cc(-c2ccc3c(c2)C(O)C[C@]32NC(=O)N(CC(=O)N3Cc4cc(F)ccc4OC[C@H]3C3CC3)C2=O)cn1` (stereo partly drawn) [SYY-B170-2], the figure is below 0.02 µM. On to `CNC(=O)Nc1ccc2c(c1)CCC21NC(=O)N(CC(=O)N2Cc3cc(F)ccc3OC[C@H]2C2CC2)C1=O` (stereo partly drawn) [ZB-P-21], for which the IC50 was below 0.02 µM in experiment [1], below 0.1 µM in experiment [3] and below 0.05 µM in experiment [4]. In the same order, the values of `Cn1cc(-c2ccc3c(c2)CCC32NC(=O)N(CC(=O)N3Cc4cc(F)ccc4OC[C@H]3C3CC3)C2=O)cn1` (stereo partly drawn) [ZB-P-28] are below 0.01 µM, below 0.01 µM and below 0.01 µM. For `Cn1cc(-c2ccc3c(c2)CCC32OC(=O)N(CC(=O)N3Cc4cc(F)ccc4OC[C@H]3C3CC3)C2=O)cn1` (stereo partly drawn) [ZB-P-29], in that order: below 0.01 µM, below 0.01 µM and below 0.01 µM.

As to `CNC(=O)Nc1cc2c(cc1F)C1(CC2)NC(=O)N(CC(=O)N2Cc3ccc(F)cc3CC[C@H]2C2CC2)C1=O` (stereo partly drawn) [ZB-P-30], the 50% inhibitory concentration (IC50) in experiment [1] is below 0.01 µM. Same read-out and setting: for `CNC(=O)Nc1cc2c(cc1F)C1(CC2)OC(=O)N(CC(=O)N2Cc3ccc(F)cc3CC[C@H]2C2CC2)C1=O` (stereo partly drawn) [ZB-P-31] the value was below 0.005 µM.
